In ChEMBL document CHEMBL1154574, “Cytonic acids A and B: novel tridepside inhibitors of hCMV protease from the endophytic fungus Cytonaema species” (J Nat Prod, 2000):

Assay: Inhibition of human cytomegalovirus protease by scintillation proximity assay
Parameters: species or system Human betaherpesvirus 5

Row | Structure (SMILES) | IC50
1 | CCCCCc1cc(OC(=O)c2c(O)cc(OC(=O)c3c(O)cc(O)cc3CCC)cc2CCC)cc(O)c1C(=O)O [CYTONIC ACID B] | 11 µM
2 | CCCCCc1cc(O)cc(O)c1C(=O)Oc1cc(O)c(C(=O)Oc2cc(O)c(C(=O)O)c(CCC)c2)c(CCC)c1 [CYTONIC ACID A] | 43 µM
